Measurements published in PubChem BioAssay (NCI).
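Where inhibition never reached the appropriate level, the endpoint shown equals the highest concentration tested. Otherwise, values were interpolated linearly from a five-concentration, 48-hour dose response in 96-well plates. GI50 = concentration required for 50% inhibition of growth. Definition used: TGI = concentration required for complete inhibition of growth.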

Assays:
Experiment in all cases: inhibition of tumour cell growth, NCI panel, 48 h
[1] = system: HOP-92 NSCLC
[2] = system: MDA-MB-435
[3] = system: 786-0 renal
[4] = system: HL-60(TB) leukemia
[5] = system: BT-549 breast
[6] = system: HCT-15 colon
[7] = system: NCI-H522 lung
[8] = system: HCT-116 colon
[9] = system: SR leukemia
[10] = system: UACC-62 melanoma
[11] = system: OVCAR-8 ovarian
[12] = system: HS 578T breast
[13] = system: MALME-3M melanoma
[14] = system: T-47D breast
[15] = system: SK-MEL-5 melanoma
[16] = system: NCI-H23 lung
[17] = system: CAKI-1 renal
[18] = system: PC-3 prostate
[19] = system: MDA-MB-231 breast
[20] = system: U251 CNS
[21] = system: MCF7 breast
[22] = system: CCRF-CEM leukemia
[23] = system: SN12C renal
[24] = system: SK-MEL-28 melanoma
[25] = system: OVCAR-4 ovarian
[26] = system: SW-620 colon
[27] = system: SF-295 CNS
[28] = system: SK-MEL-2 melanoma
[29] = system: K-562 leukemia
[30] = system: TK-10 renal
[31] = system: IGROV1 ovarian
[32] = system: KM12 colon
[33] = system: A549 NSCLC
[34] = system: HT29 colon
[35] = system: RPMI-8226 leukemia
[36] = system: HOP-62 NSCLC
[37] = system: M14 melanoma
[38] = system: A498 renal
[39] = system: NCI-H460 lung
[40] = system: OVCAR-3 ovarian
[41] = system: SNB-75 CNS
[42] = system: SF-539 CNS
[43] = system: SK-OV-3 ovarian
[44] = system: NCI/ADR-RES ovarian
[45] = system: COLO 205 colon
[46] = system: RXF 393 renal
[47] = system: HCC-2998 colon
[48] = system: OVCAR-5 ovarian
[49] = system: DU-145 prostate
[50] = system: SNB-19 CNS
[51] = system: SF-268 CNS
[52] = system: UACC-257 melanoma
[53] = system: LOX IMVI melanoma
[54] = system: NCI-H226 lung
[55] = system: ACHN renal
[56] = system: UO-31 renal
[57] = system: EKVX NSCLC
[58] = system: MOLT-4 leukemia

Work on `CC[C@H](CO)Nc1nc(NCc2ccccc2)c2ncn(C(C)C)c2n1` yielded a GI50 [1] of 28100 nM, a TGI [1] of over 90700 nM and a GI50 [2] of 20100 nM. It also gave a TGI [2] of over 73600 nM, a GI50 [3] of 31900 nM and a TGI [3] of over 100000 nM. It also gave a TGI [4] of over 79900 nM, a TGI [5] of 45300 nM and a TGI [6] of over 81600 nM. It also gave a TGI [7] of 57800 nM, a GI50 [8] of 11100 nM and a TGI [8] of over 100000 nM. For the same molecule, the TGI [9] was over 79800 nM, the GI50 [10] was 10500 nM and the TGI [10] was 34000 nM. The GI50 [11] was 29300 nM, the TGI [11] was over 100000 nM and the GI50 [12] was 20800 nM. For the same molecule, the TGI [12] was 68200 nM, the TGI [13] was 50000 nM and the GI50 [14] was 21700 nM. It also gave a TGI [14] of over 84200 nM, a TGI [15] of 35500 nM and a TGI [16] of 41900 nM. The GI50 [17] was 10900 nM, the TGI [17] was over 100000 nM and the TGI [18] was 70000 nM. The GI50 [19] was 32200 nM, the TGI [19] was over 100000 nM and the GI50 [20] was 40000 nM. It also gave a TGI [20] of over 100000 nM, a TGI [21] of over 81500 nM and a GI50 [22] of over 50600 nM. For the same molecule, the TGI [22] was over 100000 nM, the GI50 [23] was 27000 nM and the TGI [23] was over 100000 nM. The GI50 [24] was 21500 nM, the TGI [24] was 74900 nM and the GI50 [25] was 26800 nM. The TGI [25] was over 88500 nM, the GI50 [26] was 49300 nM and the TGI [26] was over 100000 nM. It also gave a GI50 [27] of 21800 nM, a TGI [27] of over 79600 nM and a TGI [28] of 44600 nM. It also gave a GI50 [29] of 40300 nM, a TGI [29] of over 100000 nM and a GI50 [30] of 44900 nM. It also gave a TGI [30] of over 100000 nM, a GI50 [31] of 11900 nM and a TGI [31] of over 86200 nM. The GI50 [32] was 10600 nM, the TGI [32] was 60200 nM and the GI50 [33] was 20100 nM. It also gave a TGI [33] of over 100000 nM, a GI50 [34] of 24300 nM and a TGI [34] of over 100000 nM. It also gave a TGI [35] of over 77800 nM, a GI50 [36] of 29400 nM and a TGI [36] of over 94000 nM. For the same molecule, the GI50 [37] was 31600 nM, the TGI [37] was over 100000 nM and the GI50 [38] was 30100 nM. For the same molecule, the TGI [38] was over 88700 nM, the TGI [39] was over 100000 nM and the GI50 [40] was 12900 nM. The TGI [40] was over 67400 nM, the TGI [41] was 30600 nM and the TGI [42] was 53600 nM. The TGI [43] was over 100000 nM, the GI50 [44] was 10900 nM and the TGI [44] was 56600 nM. The TGI [45] was 36600 nM, the TGI [46] was over 52400 nM and the GI50 [47] was 24700 nM. The TGI [47] was over 75200 nM, the GI50 [48] was 28000 nM and the TGI [48] was over 96400 nM. For the same molecule, the GI50 [49] was 19900 nM, the TGI [49] was over 100000 nM and the GI50 [50] was 26400 nM. It also gave a TGI [50] of over 100000 nM, a TGI [51] of over 75100 nM and a TGI [52] of 98700 nM. The TGI [53] was over 84100 nM, the TGI [54] was over 93700 nM and the GI50 [55] was 16400 nM. It also gave a TGI [55] of over 85900 nM, a GI50 [56] of 16700 nM and a TGI [56] of 96900 nM. The TGI [57] was 44100 nM.
In the case of `O=C1c2ccc3c4c(ccc(c24)C(=O)N1CCCNCc1ccccc1Cl)C(=O)N(CCCNCc1ccccc1Cl)C3=O`, the GI50 [1] is reported as 728 nM, the TGI [1] is reported as 2370 nM and the GI50 [2] is reported as 120 nM. It also gave a TGI [2] of 332 nM, a GI50 [3] of 610 nM and a TGI [3] of 1430 nM. The GI50 [4] was 904 nM, the TGI [4] was 2110 nM and the GI50 [5] was 870 nM. It also gave a TGI [5] of 1800 nM, a GI50 [6] of 148 nM and a TGI [6] of 620 nM. For the same molecule, the GI50 [7] was 293 nM, the TGI [7] was 974 nM and the GI50 [8] was 126 nM. It also gave a TGI [8] of 344 nM, a GI50 [9] of 151 nM and a TGI [9] of 6680 nM. For the same molecule, the GI50 [10] was 671 nM, the TGI [10] was 1430 nM and the GI50 [11] was 148 nM. It also gave a TGI [11] of 533 nM, a GI50 [12] of 984 nM and a TGI [12] of 11900 nM. The GI50 [13] was 315 nM, the TGI [13] was 1050 nM and the GI50 [14] was 787 nM. For the same molecule, the TGI [14] was 2170 nM, the GI50 [15] was 399 nM and the TGI [15] was 1020 nM. For the same molecule, the GI50 [16] was 217 nM, the TGI [16] was 860 nM and the GI50 [17] was 317 nM. It also gave a TGI [17] of 1460 nM, a GI50 [18] of 268 nM and a TGI [18] of 1560 nM. It also gave a GI50 [19] of 250 nM, a TGI [19] of 2200 nM and a GI50 [20] of 218 nM. The TGI [20] was 910 nM, the GI50 [21] was 100 nM and the TGI [21] was 231 nM. For the same molecule, the GI50 [22] was 215 nM, the TGI [22] was 50000 nM and the GI50 [23] was 99.5 nM. For the same molecule, the TGI [23] was 206 nM, the GI50 [24] was 776 nM and the TGI [24] was 1480 nM. The GI50 [25] was 89.1 nM, the TGI [25] was 182 nM and the GI50 [26] was 128 nM. It also gave a TGI [26] of 361 nM, a GI50 [27] of 494 nM and a TGI [27] of 1220 nM. The GI50 [28] was 415 nM, the TGI [28] was 1280 nM and the GI50 [29] was 183 nM. It also gave a TGI [29] of 1120 nM, a GI50 [30] of 179 nM and a TGI [30] of 724 nM. The GI50 [31] was 275 nM, the TGI [31] was 1630 nM and the GI50 [32] was 170 nM. The TGI [32] was 637 nM, the GI50 [33] was 230 nM and the TGI [33] was 833 nM. It also gave a GI50 [34] of 123 nM, a TGI [34] of 335 nM and a GI50 [35] of 390 nM. For the same molecule, the TGI [35] was 1860 nM, the GI50 [36] was 277 nM and the TGI [36] was 1020 nM. For the same molecule, the GI50 [37] was 200 nM, the TGI [37] was 685 nM and the GI50 [38] was 712 nM. The TGI [38] was 1430 nM, the GI50 [39] was 212 nM and the TGI [39] was 817 nM. The GI50 [40] was 132 nM, the TGI [40] was 345 nM and the GI50 [41] was 716 nM. It also gave a TGI [41] of 1470 nM, a GI50 [42] of 669 nM and a TGI [42] of 1380 nM. For the same molecule, the GI50 [43] was 862 nM, the TGI [43] was 3180 nM and the GI50 [44] was 142 nM. For the same molecule, the TGI [44] was 456 nM, the GI50 [45] was 89.6 nM and the TGI [45] was 166 nM. The GI50 [46] was 121 nM, the TGI [46] was 366 nM and the GI50 [47] was 191 nM. The TGI [47] was 651 nM, the GI50 [48] was 592 nM and the TGI [48] was 1670 nM. The GI50 [49] was 261 nM, the TGI [49] was 860 nM and the GI50 [50] was 314 nM. It also gave a TGI [50] of 987 nM, a GI50 [51] of 477 nM and a TGI [51] of 1490 nM. The GI50 [52] was 125 nM, the TGI [52] was 334 nM and the GI50 [54] was 659 nM. For the same molecule, the TGI [54] was 1490 nM, the GI50 [55] was 206 nM and the TGI [55] was 859 nM. For the same molecule, the GI50 [57] was 481 nM, the TGI [57] was 1160 nM and the GI50 [58] was 168 nM. For the same molecule, the TGI [58] was 722 nM.
